Several values for one entry are separate records, joined by “and”; a condition that tells them apart may be missing. Identical values can stand only once.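 Grown in 96-well plates, cells were treated for 48 hours with each compound at five concentrations. Insufficient inhibition: endpoint recorded as highest concentration tested. TGI denotes the concentration required for complete inhibition of growth.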
Experiments:
Assay in all cases: inhibition of tumour cell growth, NCI panel, 48 h
HOP-18 NSCLC = tested on: HOP-18 NSCLC
MALME-3M melanoma = tested on: MALME-3M melanoma
SF-268 CNS = tested on: SF-268 CNS
NCI-H460 lung = tested on: NCI-H460 lung
HL-60(TB) leukemia = tested on: HL-60(TB) leukemia
HOP-62 NSCLC = tested on: HOP-62 NSCLC
CAKI-1 renal = tested on: CAKI-1 renal
OVCAR-3 ovarian = tested on: OVCAR-3 ovarian
MDA-MB-435 = tested on: MDA-MB-435
A549 NSCLC = tested on: A549 NSCLC
CCRF-CEM leukemia = tested on: CCRF-CEM leukemia
RPMI-8226 leukemia = tested on: RPMI-8226 leukemia
HCC-2998 colon = tested on: HCC-2998 colon
NCI-H522 lung = tested on: NCI-H522 lung
MOLT-4 leukemia = tested on: MOLT-4 leukemia
T-47D breast = tested on: T-47D breast
SNB-75 CNS = tested on: SNB-75 CNS
OVCAR-5 ovarian = tested on: OVCAR-5 ovarian
SR leukemia = tested on: SR leukemia
NCI-H226 lung = tested on: NCI-H226 lung
ACHN renal = tested on: ACHN renal
OVCAR-4 ovarian = tested on: OVCAR-4 ovarian
SF-295 CNS = tested on: SF-295 CNS
SW-620 colon = tested on: SW-620 colon
UO-31 renal = tested on: UO-31 renal
LOX IMVI melanoma = tested on: LOX IMVI melanoma
SK-OV-3 ovarian = tested on: SK-OV-3 ovarian
HT29 colon = tested on: HT29 colon
HS 578T breast = tested on: HS 578T breast
COLO 205 colon = tested on: COLO 205 colon
IGROV1 ovarian = tested on: IGROV1 ovarian
SK-MEL-28 melanoma = tested on: SK-MEL-28 melanoma
A498 renal = tested on: A498 renal
DMS 273 small cell lung = tested on: DMS 273 small cell lung
K-562 leukemia = tested on: K-562 leukemia
MCF7 breast = tested on: MCF7 breast
SF-539 CNS = tested on: SF-539 CNS
M19-MEL melanoma = tested on: M19-MEL melanoma
EKVX NSCLC = tested on: EKVX NSCLC
KM12 colon = tested on: KM12 colon
HCT-116 colon = tested on: HCT-116 colon
M14 melanoma = tested on: M14 melanoma
DLD-1 colon = tested on: DLD-1 colon
UACC-257 melanoma = tested on: UACC-257 melanoma
HOP-92 NSCLC = tested on: HOP-92 NSCLC
786-0 renal = tested on: 786-0 renal
RXF 393 renal = tested on: RXF 393 renal
HCT-15 colon = tested on: HCT-15 colon
DU-145 prostate = tested on: DU-145 prostate
MDA-N = tested on: MDA-N
BT-549 breast = tested on: BT-549 breast
SK-MEL-2 melanoma = tested on: SK-MEL-2 melanoma
MDA-MB-231 breast = tested on: MDA-MB-231 breast
TK-10 renal = tested on: TK-10 renal
SNB-78 CNS = tested on: SNB-78 CNS
PC-3 prostate = tested on: PC-3 prostate
KM20L2 colon = tested on: KM20L2 colon
OVCAR-8 ovarian = tested on: OVCAR-8 ovarian
NCI-H23 lung = tested on: NCI-H23 lung
NCI/ADR-RES ovarian = tested on: NCI/ADR-RES ovarian
SNB-19 CNS = tested on: SNB-19 CNS
UACC-62 melanoma = tested on: UACC-62 melanoma
SK-MEL-5 melanoma = tested on: SK-MEL-5 melanoma
SN12C renal = tested on: SN12C renal
U251 CNS = tested on: U251 CNS

O=C(OC(C(=O)O)C(OC(=O)c1ccccc1)C(=O)O)c1ccccc1 (stereo not given) (tested in a mixture with another compound)
TGI (HOP-18 NSCLC): 9.71 µM and 84.2 µM | TGI (MALME-3M melanoma): > 100 µM | TGI (SF-268 CNS): > 100 µM | TGI (NCI-H460 lung): > 100 µM | TGI (HL-60(TB) leukemia): > 37.8 µM | TGI (HOP-62 NSCLC): > 100 µM | TGI (CAKI-1 renal): > 100 µM and 52.2 µM | TGI (OVCAR-3 ovarian): > 69.1 µM | TGI (MDA-MB-435): 62.7 µM | TGI (A549 NSCLC): > 100 µM | TGI (CCRF-CEM leukemia): > 100 µM | TGI (RPMI-8226 leukemia): > 100 µM | TGI (HCC-2998 colon): > 100 µM | TGI (NCI-H522 lung): 55.4 µM | TGI (MOLT-4 leukemia): > 100 µM | TGI (T-47D breast): > 100 µM | TGI (SNB-75 CNS): > 100 µM and 56 µM | TGI (OVCAR-5 ovarian): > 100 µM | TGI (SR leukemia): > 100 µM | TGI (NCI-H226 lung): > 100 µM | TGI (ACHN renal): > 100 µM | TGI (OVCAR-4 ovarian): > 100 µM | TGI (SF-295 CNS): > 100 µM | TGI (SW-620 colon): > 100 µM | TGI (UO-31 renal): > 100 µM | TGI (LOX IMVI melanoma): > 100 µM and 44.6 µM | TGI (SK-OV-3 ovarian): > 100 µM | TGI (HT29 colon): > 100 µM | TGI (HS 578T breast): 64.8 µM | TGI (COLO 205 colon): > 100 µM and 16.6 µM | TGI (IGROV1 ovarian): > 100 µM | TGI (SK-MEL-28 melanoma): > 100 µM | TGI (A498 renal): > 100 µM | TGI (DMS 273 small cell lung): > 100 µM and 14.1 µM | TGI (K-562 leukemia): > 100 µM | TGI (MCF7 breast): > 100 µM | TGI (SF-539 CNS): > 100 µM | TGI (M19-MEL melanoma): > 100 µM | TGI (EKVX NSCLC): > 100 µM | TGI (KM12 colon): > 100 µM | TGI (HCT-116 colon): 55 µM | TGI (M14 melanoma): > 100 µM | TGI (DLD-1 colon): > 100 µM | TGI (UACC-257 melanoma): > 100 µM | TGI (HOP-92 NSCLC): 55.9 µM | TGI (786-0 renal): > 100 µM | TGI (RXF 393 renal): > 100 µM | TGI (HCT-15 colon): > 100 µM | TGI (DU-145 prostate): > 100 µM | TGI (MDA-N): 43 µM | TGI (BT-549 breast): 27 µM | TGI (SK-MEL-2 melanoma): > 100 µM and 28.7 µM | TGI (MDA-MB-231 breast): 95.2 µM | TGI (TK-10 renal): > 100 µM | TGI (SNB-78 CNS): > 100 µM | TGI (PC-3 prostate): 33.5 µM | TGI (KM20L2 colon): > 100 µM and 88.7 µM | TGI (OVCAR-8 ovarian): > 100 µM | TGI (NCI-H23 lung): > 100 µM and 84.2 µM | TGI (NCI/ADR-RES ovarian): > 100 µM | TGI (SNB-19 CNS): > 100 µM | TGI (UACC-62 melanoma): > 100 µM | TGI (SK-MEL-5 melanoma): 43.2 µM | TGI (SN12C renal): > 100 µM | TGI (U251 CNS): > 100 µM
